The values below come from article PMC6511888, “Synthesis, Biological Evaluation, and Molecular Modeling Studies of New Thiadiazole Derivatives as Potent P2X7 Receptor Inhibitors” (Frontiers in Chemistry, 2019).

For one data set, the system named is Caco-2 cells. Description: Caco-2 cell permeability. In kind it is in vitro ADME. To be noted: compared to the controls and 9f and 11c. How it is done:
Corning® Costar® Transwell plates (Sigma-Aldrich, St. Louis, MO, USA) were used for seeding Caco-2 cells at 3 × 10^5 cells/well bathed with DMEM supplemented with 10% FSB according to Faria and collaborator in 2018 (Faria et al., [2018]). This culture was maintained for up to 21 days in a humidified incubator at 37°C and 5% CO2. Thiadiazole analog, vinblastine (poor permeability control), and propranolol (high permeability control) stock solutions, all at a concentration of 100 mM, were prepared in Hanks' balanced salt solution (HBSS) containing 25 mM HEPES at pH 7.4 with 0.5% (v/v) DMSO. Transport buffer (0.3 ml) was added to each well to equilibrate the cells with the transport buffer. A 24-well enhanced recovery plate containing 1 ml of transport buffer (pH 7.4) was substituted for the feeder tray. The transport buffer in the apical wells was removed, and 0.3 ml of a solution containing thiadiazoles 9b, 9c, 9f, or 11c; vinblastine; or propranolol was added. Then, the cells were replaced for incubation for 60 min. Lucifer yellow concentrations in the donor and acceptor wells were measured in the last of this incubation. Lucifer yellow was measured using an M5 plate reader ([…]) at an excitation wavelength of 485 nm and an emission wavelength of 530 nm.

The target in the next data set is T1, P2X2R (Rattus norvegicus, UniProt P49653).
T1 construct: endogenous in cells; host or cells: PC12 cells
T1 sequence (P49653 1-472): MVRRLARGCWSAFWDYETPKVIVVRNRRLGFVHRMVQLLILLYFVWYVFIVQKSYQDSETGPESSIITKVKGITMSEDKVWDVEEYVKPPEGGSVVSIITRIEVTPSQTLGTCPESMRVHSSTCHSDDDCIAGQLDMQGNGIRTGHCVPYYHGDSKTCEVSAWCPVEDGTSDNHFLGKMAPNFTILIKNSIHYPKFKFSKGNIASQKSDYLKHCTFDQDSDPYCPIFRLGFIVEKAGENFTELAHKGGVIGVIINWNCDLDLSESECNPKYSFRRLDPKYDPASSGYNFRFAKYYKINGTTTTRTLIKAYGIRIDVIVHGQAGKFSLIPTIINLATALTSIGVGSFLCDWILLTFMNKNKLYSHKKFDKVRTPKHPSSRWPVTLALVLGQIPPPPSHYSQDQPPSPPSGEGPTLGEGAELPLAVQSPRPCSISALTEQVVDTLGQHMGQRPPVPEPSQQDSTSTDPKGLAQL
Description: ATP-induced [Ca2+]i shifts in PC12 cells. In kind it is cell-based. On the procedure:
(§1) Mouse peritoneal macrophages, PC12 cells, J774 cells, and HEPG2 cells were analyzed by fluorescence microscopy to measure the intracellular Ca^2+ concentrations ([Ca^2+]i). Cells were incubated with 2 μM Fura-2-AM (Molecular Probes) for 30 min, and the [Ca^2+]i mobilization was measured in the F340/F380 ratios with a FlexStation 3 multimode microplate reader (Molecular Devices). Cells were plated in translucent 96-well plates (BD Falcon) for 15 min and then washed and incubated in a saline solution with 150 NaCl, 5 KCl, 1 MgCl2, 1 CaCl2, and 10 HEPES (pH 7.4) for 30 min before measurements of [Ca^2+]i. The Ca^2+ influx was induced by stimulating cells with P2 receptor agonists. P2 receptor antagonists were added 10 min before P2 receptor agonist addition. […] Ionomycin was considered a positive control, and the other recordings were normalized in relation to the AUC.

In the next data set the target is T2, P2X4R (Rattus norvegicus, UniProt P51577).
T2 construct: endogenous in cells; host or cells: NR8383 rat alveolar macrophage cell line
T2 sequence (P51577 1-388): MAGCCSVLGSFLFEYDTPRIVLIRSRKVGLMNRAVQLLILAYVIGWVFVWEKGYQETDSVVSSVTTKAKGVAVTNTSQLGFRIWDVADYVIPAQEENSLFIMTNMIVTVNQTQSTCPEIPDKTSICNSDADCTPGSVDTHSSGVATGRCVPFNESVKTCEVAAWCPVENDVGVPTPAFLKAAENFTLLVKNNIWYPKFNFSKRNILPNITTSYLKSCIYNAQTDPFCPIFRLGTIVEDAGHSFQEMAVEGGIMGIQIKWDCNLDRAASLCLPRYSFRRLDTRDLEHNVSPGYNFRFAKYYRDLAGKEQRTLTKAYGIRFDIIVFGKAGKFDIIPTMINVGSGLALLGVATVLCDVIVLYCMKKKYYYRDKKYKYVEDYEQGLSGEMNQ
Description: ATP-induced [Ca2+]i shifts potentiated by ivermectin in NR8383 alveolar macrophage cell line. In kind it is cell-based. Particulars: 10 μM; NR8383 cells.

For the next data set, the target named is T3, P2Y1R (Mus musculus, UniProt P49650).
T3 construct: endogenous in cells; host or cells: mouse peritoneal macrophages
T3 sequence (P49650 whole entry): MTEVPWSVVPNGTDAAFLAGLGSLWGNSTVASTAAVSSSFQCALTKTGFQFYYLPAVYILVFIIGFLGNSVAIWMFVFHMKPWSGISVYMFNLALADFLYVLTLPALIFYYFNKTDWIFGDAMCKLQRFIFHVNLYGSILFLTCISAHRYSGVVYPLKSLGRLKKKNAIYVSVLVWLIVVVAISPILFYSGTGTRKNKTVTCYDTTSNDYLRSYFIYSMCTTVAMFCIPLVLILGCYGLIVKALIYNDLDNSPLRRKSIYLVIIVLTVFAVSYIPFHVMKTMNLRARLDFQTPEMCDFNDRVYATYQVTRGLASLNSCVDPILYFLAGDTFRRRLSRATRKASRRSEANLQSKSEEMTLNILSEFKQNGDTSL
The data set can be described thus: ADP-induced [Ca2+]i shifts in mouse peritoneal macrophages. In kind it is cell-based. To be noted: concentration not given. How it is done:
as §1

Another data set has as its target T4, P2Y2R (Mus musculus, UniProt P35383).
T4 construct: endogenous in cells; host or cells: mouse peritoneal macrophages
Description: 2-S-UTP-activated [Ca2+]i shifts in mouse peritoneal macrophages. In kind it is cell-based. To be noted: concentration not given. How it is done: as §1

The next data set deals with T5, P2Y4R (Mus musculus, UniProt Q9JJS7).
T5 construct: endogenous in cells; host or cells: mouse peritoneal macrophages
T5 sequence (Q9JJS7 whole entry): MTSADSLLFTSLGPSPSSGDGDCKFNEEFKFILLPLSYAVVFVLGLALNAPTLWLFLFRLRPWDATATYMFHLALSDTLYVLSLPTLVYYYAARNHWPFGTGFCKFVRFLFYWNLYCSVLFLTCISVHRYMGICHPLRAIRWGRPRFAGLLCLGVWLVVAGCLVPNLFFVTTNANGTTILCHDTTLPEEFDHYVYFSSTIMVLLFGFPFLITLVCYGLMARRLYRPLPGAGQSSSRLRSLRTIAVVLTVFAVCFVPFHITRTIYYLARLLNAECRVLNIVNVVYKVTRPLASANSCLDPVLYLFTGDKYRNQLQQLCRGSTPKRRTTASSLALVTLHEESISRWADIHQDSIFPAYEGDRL
Description: MRS4062-induced [Ca2+]i shifts in mice peritoneal macrophages. In kind it is cell-based. To be noted: concentration not given. How it is done: as §1

A further data set deals with T6, P2Y6R (Mus musculus, UniProt Q9ERK9).
T6 construct: endogenous in cells; host or cells: mouse peritoneal macrophages
T6 sequence (Q9ERK9 whole entry): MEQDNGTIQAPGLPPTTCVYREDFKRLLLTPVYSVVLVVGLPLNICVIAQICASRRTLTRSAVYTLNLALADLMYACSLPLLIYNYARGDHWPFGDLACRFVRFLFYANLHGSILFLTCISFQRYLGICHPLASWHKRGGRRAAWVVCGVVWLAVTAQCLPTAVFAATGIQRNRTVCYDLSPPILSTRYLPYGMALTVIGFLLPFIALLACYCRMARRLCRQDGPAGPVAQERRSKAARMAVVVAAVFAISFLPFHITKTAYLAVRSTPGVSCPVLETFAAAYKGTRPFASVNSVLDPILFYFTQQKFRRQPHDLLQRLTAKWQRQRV
The data set can be described thus: UDPβS-activated [Ca2+]i shifts in mouse peritoneal macrophages. In kind it is cell-based. Particulars: concentration not given. How it is done:
as §1

For another data set, the system named is P2Y11R. Description: NAADP-induced [Ca2+]i shifts in mouse peritoneal macrophages. In kind it is cell-based. To be noted: concentration not given. On the procedure: as §1
Another data set concerns the target T7, P2Y12R (Mus musculus, UniProt Q9CPV9).
T7 construct: endogenous in cells; host or cells: mouse peritoneal macrophages
The data set can be described thus: 2MeSADP-activated [Ca2+]i shifts in mouse peritoneal macrophages. In kind it is cell-based. To be noted: concentration not given.

Another data set has as its target T8, P2Y13R (Homo sapiens, UniProt Q9BPV8).
T8 construct: endogenous in cells; host or cells: HEP2G (HEPG2) cells
T8 sequence (Q9BPV8 1-354): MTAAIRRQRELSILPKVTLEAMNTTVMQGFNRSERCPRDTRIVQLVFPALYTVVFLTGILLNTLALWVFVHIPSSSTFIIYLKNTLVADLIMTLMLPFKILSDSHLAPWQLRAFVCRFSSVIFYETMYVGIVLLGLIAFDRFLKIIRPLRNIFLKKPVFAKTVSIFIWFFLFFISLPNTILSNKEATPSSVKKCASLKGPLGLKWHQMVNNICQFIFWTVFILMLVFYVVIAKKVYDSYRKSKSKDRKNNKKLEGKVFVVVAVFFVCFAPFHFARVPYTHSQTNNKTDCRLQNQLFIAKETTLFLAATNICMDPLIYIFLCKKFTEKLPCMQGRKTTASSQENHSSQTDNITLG
Description: ADPβS-induced [Ca2+]i shifts in HEP2G cells. In kind it is cell-based. To be noted: concentration not given. On the procedure:
as §1

T4 sequence (P35383 whole entry): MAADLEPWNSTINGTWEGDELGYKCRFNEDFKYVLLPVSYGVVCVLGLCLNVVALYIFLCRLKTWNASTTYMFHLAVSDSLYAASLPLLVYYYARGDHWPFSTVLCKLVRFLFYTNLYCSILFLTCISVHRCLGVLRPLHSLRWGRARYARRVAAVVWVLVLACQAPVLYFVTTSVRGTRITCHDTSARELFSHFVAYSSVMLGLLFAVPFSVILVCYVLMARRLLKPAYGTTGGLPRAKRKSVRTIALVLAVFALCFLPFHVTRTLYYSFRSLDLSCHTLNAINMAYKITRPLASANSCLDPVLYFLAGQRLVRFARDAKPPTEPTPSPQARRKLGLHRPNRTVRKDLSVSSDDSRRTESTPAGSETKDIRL
T7 sequence (Q9CPV9 whole entry): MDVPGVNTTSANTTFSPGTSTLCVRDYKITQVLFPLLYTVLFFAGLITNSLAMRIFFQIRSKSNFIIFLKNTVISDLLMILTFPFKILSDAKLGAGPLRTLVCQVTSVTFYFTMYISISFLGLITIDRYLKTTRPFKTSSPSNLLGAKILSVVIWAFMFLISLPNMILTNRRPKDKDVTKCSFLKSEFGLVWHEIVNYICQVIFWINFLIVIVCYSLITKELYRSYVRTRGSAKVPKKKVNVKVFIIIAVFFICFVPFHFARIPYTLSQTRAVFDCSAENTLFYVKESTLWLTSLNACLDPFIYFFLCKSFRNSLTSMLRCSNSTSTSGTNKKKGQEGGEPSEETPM

For the compound `N#Cc1cnn(-c2nnc(-c3ccccc3Cl)s2)c1N` [Compound 9b], the “Permeability in Caco-2 cells (in words)” value in the data set with Caco-2 cells is “moderate permeability”.
On the same count and under the same terms, as for `N#Cc1cnn(-c2nnc(-c3ccc(F)cc3)s2)c1N` [Compound 9c], the entry is “moderate permeability”.
For the compound `CCOC(=O)c1cnn(-c2nnc(-c3ccccc3Cl)s2)c1N` [Compound 9f], at P2X2R (100 μM), the “Effect on ATP-induced [Ca2+]i shifts” value is listed as “did not inhibit”. Besides, the “Effect on ATP-induced [Ca2+]i shifts potentiated by 1 μM ivermectin” value at P2X4R is recorded as “did not inhibit”. Further, the “Effect on ADP-induced [Ca2+]i shifts” value on P2Y1R is “did not inhibit”. Also, the “Effect on 2-S-UTP-activated [Ca2+]i shifts” value on P2Y2R is on record as “did not have inhibitory effects”. In addition, the “Effect on MRS4062-induced [Ca2+]i shifts” value on P2Y4R is given as “did not inhibit”. For the same compound, the “Effect on UDPβS-activated [Ca2+]i shifts” value on P2Y6R is on record as “did not show inhibitory activity”. Also, in the data set with P2Y11R, the “Effect on NAADP-induced [Ca2+]i shifts” value was “did not inhibit”. At P2Y12R, the “Effect on 2MeSADP-activated [Ca2+]i shifts” value is listed as “not inhibited”. Also, the “Effect on ADPβS-induced [Ca2+]i shifts” value at P2Y13R is given as “did not inhibit”.
With `COc1ccc(CC(=O)NC(NC(=NC#N)Nc2cccc3ncccc23)C(C)(C)C)cc1OC` (centres unmarked) [Compound A740003, N-(1-{[(cyanoimino)(5-quinolinylamino)methyl]amino}-2,2-dimethylpropyl)-2-(3,4-dimethoxyphenyl)acetamide], the “Effect on ATP-induced [Ca2+]i shifts” value on P2X2R (10 μM) is “did not inhibit”. For the same compound, on P2X4R, the “Effect on ATP-induced [Ca2+]i shifts potentiated by 1 μM ivermectin” value is given as “did not inhibit”. For the same compound, on P2Y1R, the “Effect on ADP-induced [Ca2+]i shifts” value is reported as “did not inhibit”. For the same compound, the “Effect on 2-S-UTP-activated [Ca2+]i shifts” value at P2Y2R was “did not have inhibitory effects”. The “Effect on MRS4062-induced [Ca2+]i shifts” value at P2Y4R is given as “did not inhibit”. Further, the “Effect on UDPβS-activated [Ca2+]i shifts” value at P2Y6R is “did not show inhibitory activity”. In the data set with P2Y11R, the “Effect on NAADP-induced [Ca2+]i shifts” value is on record as “did not inhibit”. Besides, at P2Y12R, the “Effect on 2MeSADP-activated [Ca2+]i shifts” value is “not inhibited”. For the same compound, the “Effect on ADPβS-induced [Ca2+]i shifts” value on P2Y13R is “did not inhibit”.
